The values that follow come from patent US10689344B2, “Biphenylamide derivative Hsp90 inhibitors” (University of Kansas, priority 2013, dated 2020).

Test [1] deals with JMAR (Head and Neck Cancer). As to the kind of experiment: Activity of compounds in cancer cell lines, JMAR. It is filed as cell-based. As to conditions: Table 12, JMAR (Head and Neck Cancer). The text has this: Biological activity of these compounds of the present disclosure may be measured using a variety of different methods and techniques. In some embodiments of the present disclosure, the activity is measuring using anti-proliferation assays to determine an IC50 value for particular cell lines such as JMAR and MCF-7. Additionally, in other embodiments, the activity of the instant compounds is measuring using Western blot and measuring protein expression in a variety of different downstream poteins regulated by Hsp90.
(§1) Cells were maintained in a 1:1 mixture of Advanced DMEM/F12 (Gibco) supplemented with non-essential amino acids, L-glutamine (2 mM), streptomycin (500 μg/mL), penicillin (100 units/mL), and 10% FBS. Cells were grown to confluence in a humidified atmosphere (37° C., 5% CO2), seeded (2000/well, 100 μL) in 96-well plates, and allowed to attach overnight. Compound at varying concentrations in DMSO (1% DMSO final concentration) was added, and cells were returned to the incubator for 72 h. At 72 h, the number of viable cells was determined using an MTS/PMS cell proliferation kit (Promega) per the manufacturer's instructions. Cells incubated in 1% DMSO were used at 100% proliferation, and values were adjusted accordingly. IC50 values were calculated from separate experiments performed in triplicate using GraphPad Prism.

Test [2] deals with SKBr3 (estrogen receptor negative, HER2 over-expressing breast cancer cells). As to the kind of experiment: Anti-proliferation assay (MTS/PMS, 72 h), SKBr3. It is filed as cell-based. As to conditions: Homo sapiens. The essentials: (§2)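 Cells seeded at 2000/well, attached overnight, then exposed to compound at varying concentrations (1% DMSO final) for 72 h at 37° C, 5% CO2. Viability by MTS/PMS, normalised to 1% DMSO controls as 100% proliferation; IC50 from separate triplicate experiments.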

The subject of test [3] is MCF-7 (estrogen receptor positive breast cancer cells). As to the kind of experiment: Anti-proliferation assay (MTS/PMS, 72 h), MCF-7. It is filed as cell-based. Particulars: Homo sapiens. In a few lines:
as §2

In test [4] the test system is Hsp90-dependent client proteins (Her2, Raf, Akt) in MCF-7 cells. Put plainly: Western blot analyses of Hsp90-dependent client proteins from MCF-7 cell lysate. It is filed as cell-based. Particulars: for non-Hsp90-dependent protein actin (western blot): FIG. 1; for Hsp90-dependent client proteins Her2, Raf, and Akt (western blot): FIG. 1, at the same concentration needed to manifest anti-proliferative activity (H 5-fold, L 1/2). On the procedure: FIG. 1—Western blot analyses of Hsp90-dependent client proteins from MCF-7 breast cancer cell lysate upon treatment with biphenyl derivatives. H represents a concentration equal to 5-fold of the anti-proliferative activity. L represents a concentration ½ of the anti-proliferative activity. Geldanamycin (G, 0.5 μM) and dimethylsulfoxide (D, 100%) were employed as positive and negative controls.
FIGS. 2A & 2B—Western blot analyses of Hsp90-dependent client proteins from MCF-7 breast cancer cell lysate upon treatment with biphenyl derivatives. Concentrations (in μM) were indicated above each line. H represents a concentration equal to 5-fold of the anti-proliferative activity. L represents a concentration equal to 0.5-fold of the anti-proliferative activity. Geldanamycin (GDA, 0.5 μM) and dimethylsulfoxide (DMSO, 100%) were employed as positive and negative controls.
FIG. 3—Western blot analyses of Hsp90-dependent client proteins from MCF-7 breast cancer cell lysate upon treatment with compound 6l. Concentrations (in μM) were indicated above each line, and geldanamycin (GDA, 0.5 μM) and dimethylsulfoxide (DMSO) were employed as positive and negative controls.
MCF-7 cells were cultured as described above and treated with various concentrations of drug, GDA in DMSO (1% DMSO final concentration), or vehicle (DMSO) for 24 h. Cells were harvested in cold PBS and lysed in RIPA lysis buffer containing 1 mM PMSF, 2 mM sodium orthovanadate, and protease inhibitors on ice for 1 h. Lysates were clarified at 14000 g for 10 min at 4° C. Protein concentrations were determined using the Pierce BCA protein assay kit per the manufacturer's instructions. Equal amounts of protein (20 μg) were electrophoresed under reducing conditions, transferred to a nitrocellulose membrane, and immunoblotted with the corresponding specific antibodies. Membranes were incubated with an appropriate horseradish peroxidase-labeled secondary antibody, developed with a chemiluminescent substrate, and visualized.
(In general: A western blot detects proteins with antibodies after separation by electrophoresis.)

A further test relates to SKME128 (Melanoma). Put plainly: Activity of compounds in cancer cell lines, SKME128. It is filed as cell-based. Particulars: Table 12, SKME128 (Melanoma). On the procedure: as §1
A further test deals with SKBr3 cells. As to conditions: cited from earlier work.
[5] abbreviates: SK-BR-3, Table 1, ortho, meta and para biphenyl cores.
[6] abbreviates: MCF7, Table 1, ortho, meta and para biphenyl cores.
Where [7] appears, read: MCF-7 cells, FIG. 1, all concentrations tested.

For `COc1ccc(C(=O)Nc2ccc(Nc3ccc(OC4CCN(C)CC4)cc3)cc2)cc1` [drawing 162], the IC50 in test [1] came out at 9.7 nM.
With `CN1CCC(Oc2ccc(-c3cccc(NC(=O)c4ccc(Br)cc4)c3)cc2)CC1` [Compound 6l, 4-Bromo-N-(4′-((1-methylpiperidin-4-yl)oxy)-[1,1′-biphenyl]-3-yl)benzamide], it took 1940 ± 110 nM to reach half-maximal inhibition in test [2] (SK-BR-3, Table 2, para-meta biphenyl core with substituted benzylamide) (IC50). Moreover, 880 ± 70 nM corresponded to half-maximal inhibition in test [3] (MCF7, Table 2, para-meta biphenyl core with substituted benzylamide) (IC50). Further, in test [4] (MCF-7 cell lysates, FIG. 3), the “Hsp90-dependent client proteins Her2, Raf-1 and p-Akt (western blot)” value is recorded as “degraded in a concentration dependent manner”; the “Hsp90 levels (western blot)” value is given as “remained unchanged”; the “actin levels (western blot)” value is “remained constant”.
Take `CN1CCC(Oc2ccc(-c3ccc(NC(=O)c4ccc(C(C)(C)C)cc4)cc3)cc2)CC1` [drawing 163]: the IC50 in the test on SKME128 (Melanoma) turned out to be 480 nM. This counts as sub-micromolar.
In the case of `CO[C@@H]1[C@@H](OC(N)=O)[C@@H](O)[C@H](Oc2ccc3c(O)c(NC(=O)c4ccc(O)c(CC=C(C)C)c4)c(=O)oc3c2C)OC1(C)C` [Novobiocin], the “efficiency as Hsp90 C-terminal inhibitor” value with SKBr3 cells is approximately 700 µM.
For `COc1cccc(-c2cc(C(=O)Nc3ccc(-c4ccc(OC5CCN(C)CC5)cc4)cc3)ccc2OC)c1` [Compound 9a, 3′,6-dimethoxy-N-(4′-((1-methylpiperidin-4-yl)oxy)-[1,1′-biphenyl]-4-yl)-[1,1′-biphenyl]-3-carboxamide], the IC50 in test [2] (setting [5]) was determined as 470 ± 60 nM; in test [2] (SK-BR-3, Table 3, substituted para-para biphenyl core) it was 470 ± 60 nM; in test [2] (SK-BR-3, Table 5, modified linkers in para-para biphenyl core) it was 470 ± 60 nM; in test [2] (SK-BR-3, Table 7, para-para biphenyl core with modified ether groups), 470 ± 60 nM; in test [2] (SK-BR-3, Table 8, para-para biphenyl core with substituted biphenylamide group), 470 ± 60 nM; in test [3] (setting [6]) it was 710 ± 20 nM. Also, the IC50 in test [3] (MCF7, Table 3, substituted para-para biphenyl core) is 710 ± 20 nM; in test [3] (MCF7, Table 5, modified linkers in para-para biphenyl core), 710 ± 20 nM; in test [3] (MCF7, Table 7, para-para biphenyl core with modified ether groups), 710 ± 20 nM; in test [3] (MCF7, Table 8, para-para biphenyl core with substituted biphenylamide group) it was 710 ± 20 nM. Moreover, the “non-Hsp90-dependent protein actin (western blot)” value in test [4] (MCF-7 cells) was “not affected”. Also, the “Hsp90 levels (western blot)” value in test [4] (setting [7]) is reported as “remained constant”. The “Hsp90-dependent client proteins Her2, Raf, and Akt (western blot)” value in test [4] (MCF-7 cells) is “degradation in a concentration-dependent manner”.
`CN1CCC(Oc2ccc(-c3cccc(NC(=O)c4ccc(Br)cc4)c3)cc2)CC1` [drawing 161]: in test [1], the IC50 was determined as 110 nM.
For the compound `COc1cccc(-c2cc(C(=O)Nc3cccc(-c4ccc(OC5CCN(C)CC5)cc4)c3)ccc2OC)c1` [Compound 6a, 3′,6-dimethoxy-N-(4′-((1-methylpiperidin-4-yl)oxy)-[1,1′-biphenyl]-3-yl)-[1,1′-biphenyl]-3-carboxamide], the IC50 in test [2] (setting [5]) turned out to be 3650 ± 140 nM; in test [2] (SK-BR-3, Table 9, para-meta biphenyl core with prenylated benzylamide) it was 3470 ± 470 nM; in test [3] (setting [6]), 1250 ± 20 nM; in test [3] (MCF7, Table 9, para-meta biphenyl core with prenylated benzylamide), 2710 ± 400 nM. In addition, the “Hsp90 client proteins Her2 and Raf-1 (western blot)” value in test [4] (MCF-7 cell lysates, FIG. 2A, concentrations that mirror anti-proliferative IC50 values) is “degraded”. For the same compound, the “non-Hsp90-dependent protein actin (western blot)” value in test [4] (MCF-7 cells) is “not affected”. Besides, the “Hsp90 levels (western blot)” value in test [4] (setting [7]) was “remained constant”. The “Hsp90-dependent client proteins Her2, Raf, and Akt (western blot)” value in test [4] (MCF-7 cells) was “degradation in a concentration-dependent manner”.

Usually IC50 stands for the midpoint of a concentration-inhibition curve. A lower IC50 goes with greater potency in that assay.
